Reference: PMC6510909 (Investigational New Drugs, 2018)

Columns and labels:
TBK1 = TBK1 inhibition estimated from plasma Cmax; set-up: species or system human
[1] = system: patients with previously untreated metastatic PDAC; assay: Phase 1 efficacy: best overall response (RECIST v1.1), OS, PFS, duration of response; assay type: in vivo, human
Method: All patients provided written informed consent prior to enrollment.
Staging CT or MRI scans were performed at baseline and approximately every 8 weeks following Cycle 1 Day 1. Imaging modalities were maintained over the course of the study. Treatment was to continue in the absence of disease progression, unacceptable toxicity, consent withdrawal, or refusal of treatment. After discontinuation of treatment, patients were followed for safety for 30 days.
The efficacy analyses were conducted in all enrolled patients.

[2] = 100 mg MMB QD n = 7, + nab-P + G
[3] = 150 mg MMB BID n = 3, + nab-P + G
[4] = 150 mg MMB QD n = 4, + nab-P + G
[5] = 200 mg MMB BID n = 4, + nab-P + G
[6] = 200 mg MMB QD n = 7, + nab-P + G
[7] = all cohorts, MMB + nab-P + G, n = 25
[8] = overall study population, MMB + nab-P + G

SMILES: N#CCNC(=O)c1ccc(-c2ccnc(Nc3ccc(N4CCOCC4)cc3)n2)cc1 [MMB, momelotinib]
- Estimated transient maximal TBK1 inhibition (TBK1; based on the Cmax of approximately 300 ng/mL): EC70
- MMB concentrations relative to TBK1 inhibition (TBK1; pharmacokinetic analyses): too low
- Best overall response: CR [1, 2]: 0 n, (%)
- Best overall response: Not evaluable [1, 2]: 2 (28.6) n, (%)
- Best overall response: ORR (CR + PR) [1, 2]: 2 (28.6) n, (%)
- Best overall response: PD [1, 2]: 1 (14.3) n, (%)
- Best overall response: PR [1, 2]: 2 (28.6) n, (%)
- Best overall response: SD [1, 2]: 2 (28.6) n, (%)
- Best overall response: CR [1, 3]: 0 n, (%)
- Best overall response: Not evaluable [1, 3]: 1 (33.3) n, (%)
- Best overall response: ORR (CR + PR) [1, 3]: 1 (33.3) n, (%)
- Best overall response: PD [1, 3]: 0 n, (%)
- Best overall response: PR [1, 3]: 1 (33.3) n, (%)
- Best overall response: SD [1, 3]: 1 (33.3) n, (%)
- Best overall response: CR [1, 4]: 0 n, (%)
- Best overall response: Not evaluable [1, 4]: 0 n, (%)
- Best overall response: ORR (CR + PR) [1, 4]: 1 (25.0) n, (%)
- Best overall response: PD [1, 4]: 1 (25.0) n, (%)
- Best overall response: PR [1, 4]: 1 (25.0) n, (%)
- Best overall response: SD [1, 4]: 2 (50.0) n, (%)
- Best overall response: CR [1, 5]: 0 n, (%)
- Best overall response: Not evaluable [1, 5]: 0 n, (%)
- Best overall response: ORR (CR + PR) [1, 5]: 0 n, (%)
- Best overall response: PD [1, 5]: 0 n, (%)
- Best overall response: PR [1, 5]: 0 n, (%)
- Best overall response: SD [1, 5]: 4 (100.0) n, (%)
- Best overall response: CR [1, 6]: 0 n, (%)
- Best overall response: Not evaluable [1, 6]: 0 n, (%)
- Best overall response: ORR (CR + PR) [1, 6]: 3 (42.9) n, (%)
- Best overall response: PD [1, 6]: 0 n, (%)
- Best overall response: PR [1, 6]: 3 (42.9) n, (%)
- Best overall response: SD [1, 6]: 4 (57.1) n, (%)
- Complete responses (CRs) across the dose cohorts [1, 7]: no CRs
- Partial responses (PRs) across the dose cohorts [1, 7]: 7
- Stable disease as the best response, patients [1, 7]: 52%
- Objective response rate (ORR), overall study population ([1]; all cohorts, MMB + nab-P + G, n = 25, 95% CI 12.1%–49.4%): 28%
- Median (95% CI) OS [1, 8]: 8.7 (6.7, 18.8) months
- Median (95% CI) PFS [1, 8]: 5.7 (5.3, 7.2) months
- Median (95% CI) duration of response ([1]; the 7 patients with a PR): 4.0 (0.5, not reached) months
